Consider one compound from patent publication US20080254101A1, “PILOCARPINE COMPOSITIONS AND METHODS OF USE THEREOF” (priority 2004, published 2008).

Series [1] can be described thus: Ionization of pilocarpine (pKa, pH = pKa + Log10 formula). The format is physicochemical. The following applies: at a pH of from about 7.6 to about 8.6, using the formula. The text has this:
Conversion of the ionized form to the un-ionized form for pilocarpine is related to pH according to the formula: pH=pKa+Log10 (un-ionized concentration/ionized concentration). When the pH is the same as the pKa, equimolar concentrations of the un-ionized form and ionized form exist. For basic compounds such as pilocarpine, when the pH is one unit higher than the pKa, the ratio of the un-ionized form to the ionized form is 91:9. Similarly, when the pH is two units higher than the pKa, the ratio of un-ionized form to the ionized form is […]. As noted above, the un-ionized form is lipophilic and, therefore, more capable of passing through mucous membranes such as the oral mucosa than the ionized form, which is lipophobic in nature. Accordingly, increasing the pH of the saliva favors conversion of the ionized form into the un-ionized form for basic compounds such as pilocarpine, and the final pH can be determined by making use of the above formula. For pilocarpine, the tri-substituted nitrogen in the imidazole group controls the extent of ionization and the degree of lipophilicity in any given medium. Typically, the nitrogen in the imidazole group imparts a pKa of about 6.6 to the molecule at 37° C.

The conditions of series [2]: at 37° C., nitrogen in the imidazole group; cited from earlier work.

Consider `CC[C@@H]1C(=O)OC[C@@H]1Cc1cncn1C` [pilocarpine], for which, in series [1], the “conversion to an un-ionized form” value is given as “about 90%”. For the same compound, in series [2], the pKa result is “about 6.6”.
